Experimental data taken from the supplement of paper PMC8617591.

What was measured:
[1] = system: Mycobacterium tuberculosis Erdman (autoluminescent); test: GRinf, maximum normalised growth rate inhibition (three-drug combination) (unitless (-1 to 1)); higher = less effect (negative = killing)
Experimental: (§1)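 DiaMOND equipotent three-drug combination dose responses (10 doses, 1.5- or 2-fold spacing, centred on IC90) against autoluminescent M. tuberculosis Erdman in 8 in vitro models. Read-out is OD600, or luminescence for the intracellular and dormancy models, normalised to untreated wells. Hill-fit Einf, AUC25 and GRinf are potency metrics; FIC50 and FIC90 are total Loewe fractional inhibitory concentrations as log2 (negative = synergy).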

[2] = system: Mycobacterium tuberculosis Erdman (autoluminescent); test: Einf, fitted maximum growth inhibition of three-drug combination (fraction); higher = stronger maximal inhibition
Experimental: as §1

[3] = system: Mycobacterium tuberculosis Erdman (autoluminescent); test: AUC25, normalised area under dose response up to IC25 (three-drug combination) (fraction (0-1)); higher = more potent at low dose
Experimental: as §1

[4] = system: Mycobacterium tuberculosis Erdman (autoluminescent); test: total FIC50 (Loewe) at 50% inhibition, three-drug combination (log2); higher = more antagonistic
Experimental: as §1

[5] = system: Mycobacterium tuberculosis Erdman (autoluminescent); test: total FIC90 (Loewe) at 90% inhibition, three-drug combination (log2); higher = more antagonistic
Experimental: as §1

[6] = in vitro model: acidic pH 5.7, time point: constant (~7 days, model-specific)
[7] = in vitro model: acidic pH 5.7, time point: terminal (~4-5 doublings, model-specific)
[8] = in vitro model: butyrate, time point: constant (~7 days, model-specific)
[9] = in vitro model: butyrate, time point: terminal (~4-5 doublings, model-specific)
[10] = in vitro model: cholesterol 0.05 mM, time point: constant (~7 days, model-specific)
[11] = in vitro model: cholesterol 0.05 mM, time point: terminal (~4-5 doublings, model-specific)
[12] = in vitro model: cholesterol-high 0.2 mM, time point: constant (~7 days, model-specific)
[13] = in vitro model: cholesterol-high 0.2 mM, time point: terminal (~4-5 doublings, model-specific)
[14] = in vitro model: dormancy (butyrate + nitrate, low O2), time point: constant (~7 days, model-specific)
[15] = in vitro model: dormancy (butyrate + nitrate, low O2), time point: terminal (~4-5 doublings, model-specific)
[16] = in vitro model: intracellular J774, time point: constant = terminal
[17] = in vitro model: standard 7H9 glycerol, time point: constant = terminal
[18] = in vitro model: valerate, time point: constant (~7 days, model-specific)
[19] = in vitro model: valerate, time point: terminal (~4-5 doublings, model-specific)

CC(C)/N=c1\cc2n(-c3ccc(Cl)cc3)c3ccccc3nc-2cc1Nc1ccc(Cl)cc1 [clofazimine] + CC[C@@H](CO)NCCN[C@@H](CC)CO [ethambutol] + CO[C@H]1/C=C/O[C@@]2(C)Oc3c(C)c(O)c4c(O)c(c(/C=N/N5CCN(C6CCCC6)CC5)c(O)c4c3C2=O)NC(=O)/C(C)=C\C=C\[C@H](C)[C@H](O)[C@@H](C)[C@@H](O)[C@@H](C)[C@H](OC(C)=O)[C@@H]1C [rifapentine]
GRinf [1, 6]: -0.109 | GRinf [1, 7]: -0.14 | GRinf [1, 8]: -0.0595 | GRinf [1, 9]: -0.043 | GRinf [1, 10]: -0.0332 | GRinf [1, 11]: -0.122 | GRinf [1, 12]: -0.371 | GRinf [1, 13]: -0.81 | GRinf [1, 14]: 0.414 | GRinf [1, 15]: -0.336 | GRinf [1, 16]: -0.172 | GRinf [1, 17]: 0.0206 | GRinf [1, 18]: 0.017 | GRinf [1, 19]: 0.0199 | Einf [2, 6]: 0.877 | Einf [2, 7]: 0.978 | Einf [2, 8]: 0.942 | Einf [2, 9]: 0.972 | Einf [2, 10]: 0.703 | Einf [2, 11]: 0.871 | Einf [2, 12]: 0.928 | Einf [2, 13]: 1 | Einf [2, 14]: 0.823 | Einf [2, 15]: 0.99 | Einf [2, 16]: 0.973 | Einf [2, 17]: 0.92 | Einf [2, 18]: 0.889 | Einf [2, 19]: 0.925 | AUC25 [3, 6]: 0.0945 | AUC25 [3, 7]: 0.0736 | AUC25 [3, 8]: 0.083 | AUC25 [3, 9]: 0.0656 | AUC25 [3, 10]: 0.111 | AUC25 [3, 11]: 0.0974 | AUC25 [3, 12]: 0.0285 | AUC25 [3, 13]: 0.0668 | AUC25 [3, 14]: 0.105 | AUC25 [3, 15]: 0.128 | AUC25 [3, 17]: 0.105 | AUC25 [3, 18]: 0.126 | AUC25 [3, 19]: 0.0898 | total FIC50 [4, 6]: 0.153 | total FIC50 [4, 7]: 0.358 | total FIC50 [4, 8]: 0.37 | total FIC50 [4, 9]: 0.422 | total FIC50 [4, 11]: 1.66 | total FIC50 [4, 12]: 1.18 | total FIC50 [4, 13]: 1.37 | total FIC50 [4, 14]: -0.127 | total FIC50 [4, 15]: 0.0752 | total FIC50 [4, 17]: -0.0963 | total FIC50 [4, 18]: 1.07 | total FIC50 [4, 19]: 0.462 | total FIC90 [5, 7]: 0.125 | total FIC90 [5, 9]: -0.0851 | total FIC90 [5, 13]: 1.24 | total FIC90 [5, 15]: 0.891 | total FIC90 [5, 16]: -1.79 | total FIC90 [5, 19]: 0.841

CC(C)/N=c1\cc2n(-c3ccc(Cl)cc3)c3ccccc3nc-2cc1Nc1ccc(Cl)cc1 [clofazimine] + CC[C@@H](CO)NCCN[C@@H](CC)CO [ethambutol] + CO[C@H]1/C=C/O[C@@]2(C)Oc3c(C)c(O)c4c(O)c(c(/C=N/N5CCN(C)CC5)c(O)c4c3C2=O)NC(=O)/C(C)=C\C=C\[C@H](C)[C@H](O)[C@@H](C)[C@@H](O)[C@@H](C)[C@H](OC(C)=O)[C@@H]1C [rifampicin]
GRinf [1, 6]: -0.0788 | GRinf [1, 7]: -0.112 | GRinf [1, 8]: -0.114 | GRinf [1, 9]: -0.114 | GRinf [1, 10]: -0.277 | GRinf [1, 11]: 0.17 | GRinf [1, 12]: -0.277 | GRinf [1, 13]: -0.923 | GRinf [1, 14]: 0.515 | GRinf [1, 15]: -0.158 | GRinf [1, 16]: -0.295 | GRinf [1, 17]: 0.048 | GRinf [1, 18]: 0.045 | GRinf [1, 19]: 0.036 | Einf [2, 6]: 0.88 | Einf [2, 7]: 0.973 | Einf [2, 8]: 0.95 | Einf [2, 9]: 0.982 | Einf [2, 10]: 0.684 | Einf [2, 11]: 0.785 | Einf [2, 12]: 0.93 | Einf [2, 13]: 1 | Einf [2, 14]: 0.828 | Einf [2, 15]: 0.991 | Einf [2, 16]: 0.969 | Einf [2, 17]: 0.922 | Einf [2, 18]: 0.858 | Einf [2, 19]: 0.929 | AUC25 [3, 6]: 0.0857 | AUC25 [3, 7]: 0.0645 | AUC25 [3, 8]: 0.0971 | AUC25 [3, 9]: 0.1 | AUC25 [3, 10]: 0.126 | AUC25 [3, 11]: 0.0974 | AUC25 [3, 12]: 0.0508 | AUC25 [3, 13]: 0.0801 | AUC25 [3, 14]: 0.0958 | AUC25 [3, 15]: 0.0873 | AUC25 [3, 17]: 0.0958 | AUC25 [3, 18]: 0.0993 | AUC25 [3, 19]: 0.0696 | total FIC50 [4, 6]: -0.0594 | total FIC50 [4, 7]: 0.213 | total FIC50 [4, 8]: 0.276 | total FIC50 [4, 9]: 0.306 | total FIC50 [4, 11]: 2.31 | total FIC50 [4, 12]: 0.891 | total FIC50 [4, 13]: 1.24 | total FIC50 [4, 14]: 0.137 | total FIC50 [4, 15]: 0.0335 | total FIC50 [4, 17]: -0.0461 | total FIC50 [4, 18]: 0.749 | total FIC50 [4, 19]: 0.485 | total FIC90 [5, 7]: -0.308 | total FIC90 [5, 9]: 0.441 | total FIC90 [5, 13]: 1.32 | total FIC90 [5, 15]: -0.232 | total FIC90 [5, 16]: -2.37 | total FIC90 [5, 19]: -0.638

CC(C)/N=c1\cc2n(-c3ccc(Cl)cc3)c3ccccc3nc-2cc1Nc1ccc(Cl)cc1 [clofazimine] + CC[C@@H](CO)NCCN[C@@H](CC)CO [ethambutol] + COc1c(N2C[C@@H]3CCCN[C@@H]3C2)c(F)cc2c(=O)c(C(=O)O)cn(C3CC3)c12 [moxifloxacin]
GRinf [1, 6]: -0.00432 | GRinf [1, 7]: -0.127 | GRinf [1, 8]: -0.103 | GRinf [1, 9]: -0.104 | GRinf [1, 10]: -0.615 | GRinf [1, 11]: -0.144 | GRinf [1, 12]: -0.699 | GRinf [1, 13]: -0.973 | GRinf [1, 14]: 0.451 | GRinf [1, 15]: -0.415 | GRinf [1, 16]: -0.457 | GRinf [1, 17]: -0.184 | GRinf [1, 18]: -0.0325 | GRinf [1, 19]: 0.0757 | Einf [2, 6]: 0.672 | Einf [2, 7]: 0.925 | Einf [2, 8]: 0.96 | Einf [2, 9]: 0.979 | Einf [2, 10]: 0.651 | Einf [2, 11]: 0.885 | Einf [2, 12]: 0.95 | Einf [2, 13]: 1 | Einf [2, 14]: 0.817 | Einf [2, 15]: 0.977 | Einf [2, 16]: 0.966 | Einf [2, 17]: 0.971 | Einf [2, 18]: 0.864 | Einf [2, 19]: 0.903 | AUC25 [3, 6]: 0.115 | AUC25 [3, 7]: 0.0596 | AUC25 [3, 8]: 0.11 | AUC25 [3, 9]: 0.0834 | AUC25 [3, 10]: 0.123 | AUC25 [3, 11]: 0.117 | AUC25 [3, 12]: 0.0933 | AUC25 [3, 13]: 0.0951 | AUC25 [3, 14]: 0.0862 | AUC25 [3, 15]: 0.113 | AUC25 [3, 17]: 0.0915 | AUC25 [3, 18]: 0.132 | AUC25 [3, 19]: 0.0712 | total FIC50 [4, 6]: 1.25 | total FIC50 [4, 7]: 0.64 | total FIC50 [4, 8]: 0.505 | total FIC50 [4, 9]: 0.581 | total FIC50 [4, 11]: 1.19 | total FIC50 [4, 12]: 0.429 | total FIC50 [4, 13]: 0.534 | total FIC50 [4, 14]: 0.137 | total FIC50 [4, 15]: 0.0118 | total FIC50 [4, 17]: 0.258 | total FIC50 [4, 18]: 0.987 | total FIC50 [4, 19]: 0.489 | total FIC90 [5, 7]: -0.564 | total FIC90 [5, 9]: 0.553 | total FIC90 [5, 13]: 0.957 | total FIC90 [5, 15]: 0.798 | total FIC90 [5, 16]: -0.92 | total FIC90 [5, 17]: 0.732 | total FIC90 [5, 19]: -1.39
